Patent US8993632B2, “Inhibitors of the 11-beta-hydroxysteroid dehydrogenase type 1 enzyme” (AbbVie Inc., priority 2005, dated 2015)

How the values were obtained:
[1] = test system: serotonin (5-HT) levels; experiment: Microdialysis, cortical/hippocampal serotonin levels; assay type: in vivo, Sprague Dawley rats; conditions: single administration 30 mg/kg, p.o.
Procedure: (§1) Microdialysis studies (resting or challenging conditions) in freely moving, male Sprague Dawley rats (Janvier, 295-315 g, n=5-8/treatment group) were performed using stereotactically instrumented microdialysis probes (CMA/12-14-2): mPFC, hippocampus. Aliquots of the same microdialysate fractions (6 before, and 9-12 after compound administration) were analyzed either for acetylcholine or for serotonin by HPLC and electrochemical detection.
This is a feature shared by marketed anti-depressive drugs and might indicate the potential use for 11β-HSD1 inhibitors as antidepressants/anxiolytic drugs. These findings remain to be confirmed by (i) investigating 11β-HSD1 inhibitors from different chemotype(s) in selected microdialysis studies and/or (ii) in animal models of depression/anxiety.

[2] = test system: ACh release; experiment: Microdialysis, cortical/hippocampal acetylcholine levels; assay type: in vivo, Sprague Dawley rats; conditions: single administration 30 mg/kg, p.o.
Procedure: as §1

[3] = test system: Fisher rats; experiment: Rat EEG REM sleep parameters; assay type: in vivo; conditions: 30 mg/kg, 3 times at 24, 26, and 0.1 hours before measurement; 8 h EEG
Procedure: EEG of Fisher rats (n=8/group) with chronically implanted supracortical EEG-electrodes were analyzed for an 8 h period. Intraindividual drug-induced changes of power spectra were analyzed. For REM sleep the number of REM episodes, latency to first REM, and total REM time was analyzed.

[4] = test system: Sprague Dawley rats; experiment: Short-term social recognition memory in the rat; assay type: in vivo; conditions: 30 mg/kg po at 24, 18 and 1 hour before first juvenile exposure, vs vehicle control rats
Procedure: Social memory and social cognition are impaired in disorders such as Alzheimer's disease and schizophrenia. One of the more commonly used preclinical models of social recognition memory is short-term social recognition in the rat, a model of short-term memory based on the recognition of a juvenile rat by an adult rat. […] The juvenile rat is then removed and reintroduced 120 min later, and interactive behavior of the adult rat is again monitored. If memory has been lost over the interval between trials 1 and 2, the extent of interaction is equal (expressed as a ratio of investigation time of T1/T2) and the ratio will be close to 1. However, if the adult remembers the juvenile, the investigation ratio declines. To test for non-specific effects, a novel juvenile is introduced at 120 minutes instead of the familiar juvenile. […]
Rats were pre-dosed po at 24, 18 and 1 hour before first juvenile rat exposure with vehicle, or Compound MM (30 mg/kg). […] The time the adult spent exploring (sniffing, grooming, close following) the juvenile during this test session was recorded, and defined as the first investigation duration. […] Data were analyzed using a one-way analysis of variance. If there was a significant effect, subsequent post hoc significance was determined using Dunnett's multiple comparison testing (p<0.05 was regarded as significant).

[5] = test system: HSD-1; experiment: Monkey ex vivo HSD1 activity (cortisone to cortisol in harvested tissue); parameters: species or system Cynomolgus Monkeys; conditions: for HSD-1 ex vivo activity, Mean % Veh Control: single 10 mg/kg oral dose
Procedure: Harvested tissues (approximately 150 mg) were minced into small, 2 mm pieces in the presence of 5× volume of incubation buffer. Cortisone at final concentrations of 0, 3, 10 or 30 μM was added to each well. Cell culture plates with tissues were incubated at 37° C. for three hours. Two-hundred μL of tissue culture supernatant was then removed and spun at 1000 rpm in an Eppindorf tube, and then 100 μL of resulting supernatant was aliquotted into two tubes for LCMS analysis of cortisol.

[6] = test system: phosphorylated CREB; experiment: Phosphorylated CREB immunohistochemistry in brain after food-in-diet dosing; assay type: in vivo, mice; conditions: 18 days food-in-diet (10 and 100 mg/kg/day)
Procedure: In vivo signaling studies were conducted to examine the biochemical pathways that may be mechanistically involved in the cognitive efficacy associated with Compound KK. An important signaling process that serves as a biochemical correlate of synaptic plasticity underlying learning and memory is the phosphorylation of CREB (c-AMP-response element binding protein), a transcription factor critical to long-term memory. To investigate the effects of Compound KK on CREB phosphorylation, CD1 mice treated and tested (data presented in FIG. 1) were given a 24-hour rest after testing before immunohistochemical procedures commenced.
Male CD-1 mice were obtained from Charles River, Wilmington, Mass. Mice were group-housed 10 per cage. The body weight upon arrival was 20-25 g. […]
Compound KK was administered via a drug-in-diet administration (100 mg/kg/day in Western diet) or (10 mg/kg/day in Western diet). […] Immuno-reactivity (IR) was quantified using an image analysis system (Leica, Quantimet 500) that determined number and/or area of peroxidase substrate-positive stained neurons from digitized photomicrographs according to a pixel gray level empirically determined prior to analysis. Overall statistical significance was determined using a one-way ANOVA, with Dunnett's post hoc analyses used to determine significance (p<0.05 was considered significant).

[7] = test system: CD-1 mice; experiment: 24-hour inhibitory avoidance task in mice after drug-in-diet dosing; assay type: in vivo; conditions: both doses (10 and 100 mg/kg/day in Western diet), vs vehicle control mice
Procedure: The 24-hour inhibitory avoidance task in mice is a measure of one-trial learning and memory consolidation in response to a discrete aversive event (foot-shock). Mice are first placed in an illuminated compartment of a two-compartment apparatus. Mice will naturally step through into an adjoining dark compartment, which they prefer. When the mice enter the dark they receive a mild foot-shock. To assess memory, mice are tested 24 hours later and the length of time the animal refrains from entering the dark compartment is recorded (higher latencies indicate improved memory for the aversive event).
Male CD-1 mice were obtained from Charles River, Wilmington, Mass. Mice were group-housed 10 per cage. The body weight upon arrival was 20-25 g. Food and water were available ad libitum except during experiments. […]
On the first day of testing (17 days after drug-in-diet was presented) mice were removed from the colony room in their home cage, brought to the testing room, and left undisturbed for 2 hours prior to testing initiation. […] The latency to enter the dark chamber was recorded and was the dependent variable measured for assessing memory retention (latency is defined as entry of the whole mouse; all 4 paws on the grids in the dark side, plus the tail in the chamber for 5 sec; 180 sec is maximum latency). Data were analyzed using Mann Whitney U comparisons. […]

Compound	serotonin (5-HT) levels in the medial prefrontal cortex and in the hippocampus [1]	ACh release under resting conditions ([2]; acute)	ACh release under challenging conditions (novel cage), cortex and hippocampus [2]	increase of latency to first REM [3]	reduction of REM time [3]	reduction of number of REM sleep episodes [3]	reduction of total sleep time [3]	short-term memory retention, FIG. 4 [4]	ex vivo inhibition of HSD1 in monkey brain, fat and liver ([5]; 2.5 and 16 hours following a single oral 10 mg/kg dose)	HSD-1 ex vivo activity, Mean % Veh Control ([5]; Cerebral Cortex, 16 hours)	HSD-1 ex vivo activity, Mean % Veh Control ([5]; Hippocampus, 16 hours)	HSD-1 ex vivo activity, Mean % Veh Control ([5]; Liver, 2.5 hours)	HSD-1 ex vivo activity, Mean % Veh Control ([5]; Liver, 16 hours)	HSD-1 ex vivo activity, Mean % Veh Control ([5]; Mesenteric Fat, 2.5 hours)	HSD-1 ex vivo activity, Mean % Veh Control ([5]; Mesenteric Fat, 16 hours)	phosphorylated CREB, FIG. 2 [6]	memory retention (Mean Transfer Latency), FIG. 1 [7]
O=C(CN1CCN(c2ccc(C(F)(F)F)cn2)CC1)NC1C2CC3CC1CC(O)(C3)C2 (centres unmarked) [Compound MM, N-[(E)-5-Hydroxy-2-adamantyl]-2-{-4-[5-(trifluoromethyl)pyridin-2-yl]piperazin-1-yl}acetamide]	long-lasting increase	did not change ACh release	did not induce any further stimulation of ACh release	62%	23%	16%	10%	significant improvement in short-term memory retention	–	–	–	–	–	–	–	–	–
CC(C)(Oc1ccc(F)cc1Cl)C(=O)NC1C2CC3CC1CC(S(C)(=O)=O)(C3)C2 (centres unmarked) [Compound KK, 2-(2-Chloro-4-fluorophenoxy)-2-methyl-N-[(E)-5-(methylsulfonyl)-2-adamantyl]propanamide]	–	–	–	–	–	–	–	–	potent ex vivo inhibition	30%	42%	38%	9%	90%	50%	increase in phosphorylated CREB	significant improvement in memory retention
